According to PubChem BioAssay AID1963968 (Molecular Pharmacology Branch, DTP, NCI, 2024):

Tested on: 945468-187-T-J3-PDC spheroids with HUVEC/MSC, viability
Experiment: Anticancer human tumor 945468-187-T-J3-PDC patient-derived rectal carcinoma cell line growth inhibition [PI3K]
Settings: for IC50: curve of first compound; for viability, T/C: stronger effect = lower value
How it was run: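 Multi-cell spheroids combine tumor cells with HUVEC and human MSCs, treated with targeted agents alone or with inavolisib, alpelisib, duvelisib or copanlisib. Concentrations fall in half-log steps from at or near clinical Cmax, or from 10 microM where Cmax is unknown; viability read-out.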

[1] = second compound 0.0316 µM, first compound 0.0316 µM
[2] = second compound 0.0316 µM, first compound 0.1 µM
[3] = second compound 0.1 µM, first compound 0.0316 µM
[4] = second compound 0.1 µM, first compound 0.1 µM
[5] = second compound 0.316 µM, first compound 0.0316 µM
[6] = second compound 0.316 µM, first compound 0.1 µM
[7] = second compound 1 µM, first compound 0.0316 µM
[8] = second compound 1 µM, first compound 0.1 µM
[9] = second compound 0.0316 µM, first compound 0.316 µM
[10] = second compound 0.0316 µM, first compound 1 µM
[11] = second compound 0.0316 µM, first compound 3.16 µM
[12] = second compound 0.0316 µM, first compound 10 µM
[13] = second compound 0.1 µM, first compound 0.316 µM
[14] = second compound 0.1 µM, first compound 1 µM
[15] = second compound 0.1 µM, first compound 3.16 µM
[16] = second compound 0.1 µM, first compound 10 µM
[17] = second compound 0.316 µM, first compound 0.316 µM
[18] = second compound 0.316 µM, first compound 1 µM
[19] = second compound 0.316 µM, first compound 3.16 µM
[20] = second compound 0.316 µM, first compound 10 µM
[21] = second compound 1 µM, first compound 0.316 µM
[22] = second compound 1 µM, first compound 1 µM
[23] = second compound 1 µM, first compound 3.16 µM
[24] = second compound 1 µM, first compound 10 µM
[25] = second compound 3.16 µM, first compound 0.0316 µM
[26] = second compound 3.16 µM, first compound 0.1 µM
[27] = second compound 3.16 µM, first compound 0.316 µM
[28] = second compound 3.16 µM, first compound 1 µM
[29] = second compound 3.16 µM, first compound 3.16 µM
[30] = second compound 3.16 µM, first compound 10 µM
[31] = second compound 10 µM, first compound 0.0316 µM
[32] = second compound 10 µM, first compound 0.1 µM
[33] = second compound 10 µM, first compound 0.316 µM
[34] = second compound 10 µM, first compound 1 µM
[35] = second compound 10 µM, first compound 3.16 µM
[36] = second compound 10 µM, first compound 10 µM
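Further: spheroids exposed to agents for 7 days before viability read.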
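Wherever viability, T/C is given: 100% = DMSO vehicle control viability.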

CC(=O)c1c(C)c2cnc(Nc3ccc(N4CCNCC4)cn3)nc2n(C2CCCC2)c1=O + CC(Nc1ccc2c(c1)OCCn1cc(N3C(=O)OCC3C(F)F)nc1-2)C(N)=O
IC50 (second compound 0.00316 µM): > 100 nM | IC50 (second compound 0.01 µM): > 100 nM | IC50 (second compound 0.0316 µM): > 100 nM | IC50 (second compound 0.1 µM): > 100 nM | IC50 (second compound 0.316 µM): > 100 nM | IC50 (second compound 1 µM): 77.5 nM | viability, T/C (second compound 0.00316 µM, first compound 0.000316 µM): 90.5% | viability, T/C (second compound 0.00316 µM, first compound 0.001 µM): 100% | viability, T/C (second compound 0.00316 µM, first compound 0.00316 µM): 94.9% | viability, T/C (second compound 0.00316 µM, first compound 0.01 µM): 99.2% | viability, T/C (second compound 0.00316 µM, first compound 0.0316 µM): 108% | viability, T/C (second compound 0.00316 µM, first compound 0.1 µM): 110% | viability, T/C (second compound 0.01 µM, first compound 0.000316 µM): 97.6% | viability, T/C (second compound 0.01 µM, first compound 0.001 µM): 104% | viability, T/C (second compound 0.01 µM, first compound 0.00316 µM): 101% | viability, T/C (second compound 0.01 µM, first compound 0.01 µM): 110% | viability, T/C (second compound 0.01 µM, first compound 0.0316 µM): 109% | viability, T/C (second compound 0.01 µM, first compound 0.1 µM): 103% | viability, T/C (second compound 0.0316 µM, first compound 0.000316 µM): 108% | viability, T/C (second compound 0.0316 µM, first compound 0.001 µM): 104% | viability, T/C (second compound 0.0316 µM, first compound 0.00316 µM): 92.8% | viability, T/C (second compound 0.0316 µM, first compound 0.01 µM): 116% | viability, T/C [1]: 101% | viability, T/C [2]: 123% | viability, T/C (second compound 0.1 µM, first compound 0.000316 µM): 110% | viability, T/C (second compound 0.1 µM, first compound 0.001 µM): 111% | viability, T/C (second compound 0.1 µM, first compound 0.00316 µM): 104% | viability, T/C (second compound 0.1 µM, first compound 0.01 µM): 118% | viability, T/C [3]: 115% | viability, T/C [4]: 119% | viability, T/C (second compound 0.316 µM, first compound 0.000316 µM): 118% | viability, T/C (second compound 0.316 µM, first compound 0.001 µM): 100% | viability, T/C (second compound 0.316 µM, first compound 0.00316 µM): 90.1% | viability, T/C (second compound 0.316 µM, first compound 0.01 µM): 101% | viability, T/C [5]: 104% | viability, T/C [6]: 81.5% | viability, T/C (second compound 1 µM, first compound 0.000316 µM): 83.1% | viability, T/C (second compound 1 µM, first compound 0.001 µM): 67.9% | viability, T/C (second compound 1 µM, first compound 0.00316 µM): 64.7% | viability, T/C (second compound 1 µM, first compound 0.01 µM): 80.6% | viability, T/C [7]: 74.8% | viability, T/C [8]: 43.2%

CC1(C)CCC(CN2CCN(c3ccc(C(=O)NS(=O)(=O)c4ccc(NCC5CCOCC5)c([N+](=O)[O-])c4)c(Oc4cnc5[nH]ccc5c4)c3)CC2)=C(c2ccc(Cl)cc2)C1 + CC(Nc1ncnc2nc[nH]c12)c1cc2cccc(Cl)c2c(=O)n1-c1ccccc1
IC50 (second compound 0.0316 µM): > 10000 nM | IC50 (second compound 0.1 µM): > 10000 nM | IC50 (second compound 0.316 µM): > 10000 nM | IC50 (second compound 1 µM): > 10000 nM | IC50 (second compound 3.16 µM): > 10000 nM | IC50 (second compound 10 µM): > 10000 nM | viability, T/C [1]: 99.2% | viability, T/C [2]: 91.9% | viability, T/C [9]: 95.7% | viability, T/C [10]: 96% | viability, T/C [11]: 117% | viability, T/C [12]: 114% | viability, T/C [3]: 94.4% | viability, T/C [4]: 95.8% | viability, T/C [13]: 98.7% | viability, T/C [14]: 102% | viability, T/C [15]: 105% | viability, T/C [16]: 106% | viability, T/C [5]: 111% | viability, T/C [6]: 106% | viability, T/C [17]: 104% | viability, T/C [18]: 118% | viability, T/C [19]: 113% | viability, T/C [20]: 104% | viability, T/C [7]: 100% | viability, T/C [8]: 94% | viability, T/C [21]: 92.6% | viability, T/C [22]: 98.6% | viability, T/C [23]: 110% | viability, T/C [24]: 110% | viability, T/C [25]: 100% | viability, T/C [26]: 107% | viability, T/C [27]: 95.4% | viability, T/C [28]: 109% | viability, T/C [29]: 115% | viability, T/C [30]: 98.2% | viability, T/C [31]: 105% | viability, T/C [32]: 95.6% | viability, T/C [33]: 97.3% | viability, T/C [34]: 103% | viability, T/C [35]: 120% | viability, T/C [36]: 93.9%

Cn1ncc(Cl)c1-c1cc(C(=O)NC(CN)Cc2cccc(F)c2)sc1Cl (stereo unspecified) + CC(Nc1ncnc2nc[nH]c12)c1cc2cccc(Cl)c2c(=O)n1-c1ccccc1
IC50 (second compound 0.0316 µM): 1720 nM | IC50 (second compound 0.1 µM): 2390 nM | IC50 (second compound 0.316 µM): 1970 nM | IC50 (second compound 1 µM): 1340 nM | IC50 (second compound 3.16 µM): 1730 nM | IC50 (second compound 10 µM): 1140 nM | viability, T/C [1]: 101% | viability, T/C [2]: 96% | viability, T/C [9]: 99.9% | viability, T/C [10]: 59.3% | viability, T/C [11]: 44.9% | viability, T/C [12]: 33.5% | viability, T/C [3]: 94.9% | viability, T/C [4]: 104% | viability, T/C [13]: 88.2% | viability, T/C [14]: 60.5% | viability, T/C [15]: 51.5% | viability, T/C [16]: 38.2% | viability, T/C [5]: 106% | viability, T/C [6]: 97.3% | viability, T/C [17]: 87.3% | viability, T/C [18]: 62.1% | viability, T/C [19]: 41.2% | viability, T/C [20]: 28.6% | viability, T/C [7]: 112% | viability, T/C [8]: 89.5% | viability, T/C [21]: 86.2% | viability, T/C [22]: 48.6% | viability, T/C [23]: 39% | viability, T/C [24]: 28.5% | viability, T/C [25]: 107% | viability, T/C [26]: 97.7% | viability, T/C [27]: 86.5% | viability, T/C [28]: 57.6% | viability, T/C [29]: 40.7% | viability, T/C [30]: 24.6% | viability, T/C [31]: 107% | viability, T/C [32]: 75.9% | viability, T/C [33]: 84.2% | viability, T/C [34]: 44.5% | viability, T/C [35]: 35% | viability, T/C [36]: 20.1%
